63 compounds from a melting point compilation (Tetko et al.; mined from patent text by program, amines drawn as free bases though some values may be those of a salt) can be followed below.

The term melting point denotes the temperature, or range, at which the solid turns liquid.

In turn, `COC(=O)c1ccc2[nH]c(=O)n(CCCCN3CC=C(c4ccccc4)CC3)c(=O)c2c1` came in with a melting point of 138 °C.
Consider `CCC(CC)N(C)Cc1ccc(NC(=O)C2=Cc3cc(-c4ccc(C)cc4)ccc3SCC2)cc1`, for which the melting point is 136 to 137 °C.
The result for `CCCNC(=O)CCn1cnc2c(N)nc3ccccc3c21` reads 212 to 214 °C.
The figure for `O=C(c1ccccc1)c1cc(O)c(O)c([N+](=O)[O-])c1` is 132 °C; for `Cc1c(C(=O)CS(=O)Cc2ccc(Cl)cc2)sc2ccc(Cl)cc12` (stereo not drawn) it is 168 to 170 °C.
The figure for `COc1ccc(C(F)(F)F)cc1NC(=O)CCl` is 94.7 °C; for `CC(=O)Oc1ccc(CCc2cccc(OC(C)=O)c2)cc1` it is 69.5 to 70 °C.
`CC[C@H](COC)n1cc(Br)nc(N2CCc3cc(OC)cc(Br)c32)c1=O` registered a melting point of 122 to 123 °C.
Compound `COc1ccc(-c2ccc3c(-c4ccccc4)c(OC)ccc3c2)cc1` showed a melting point of 157 to 160 °C.
In turn, `C=C(c1ccc(N(CC)CC)cc1)c1ccc(N(CC)CC)cc1` registered a melting point of 100 to 102 °C.
The compound `O=[N+]([O-])c1cc(Cl)c(N=C=S)c(Cl)c1` had a melting point of 74 to 77 °C.
`CC1CCN(c2scc(C(C)(C)C)c2C#N)C1=O` (stereo not drawn) had a melting point of 92 to 94 °C.
`CC1(C)c2ccccc2N2Cc3cc(N=Nc4ccc([N+](=O)[O-])cc4)ccc3OC21c1ccccc1` (stereo not drawn) returned a melting point of 200 °C.
With `CC(C)(C)OC(=O)C(C1NC(C(=O)OCc2ccccc2)C2(CCSCC2)S1)N1C(=O)c2ccccc2C1=O` (stereo not drawn), the melting point is 197 to 198 °C.
The result for `CC1(C)NC(=O)N(c2ccc(Cl)c(C(F)(F)F)c2)C1=N` reads 148 to 149 °C; that for `NC(=O)c1cc(-c2ccncc2)sc1-c1ccncc1`, 240 to 242 °C.
The figure for `CN1C(=O)C2C3C=CC(C3)C2(c2cccc(Cl)c2)C1=O` (stereo not drawn) is 98 to 100 °C; for `O=C(O)c1c[n+]([O-])cc2ccccc12` it is 280 to 283 °C; for `CCOC(=O)CN1CCC2(CC1)CC(c1ccc(C#N)cc1)=NO2` it is 116 to 118 °C.
The result for `O=C1NC(=O)C2(CCOc3c([N+](=O)[O-])cc(F)cc32)S1` (stereo not drawn) reads 192 to 194 °C.
`COC(=O)[C@H]1NC(=O)[C@H]1NC(=O)Cc1ccccc1` (relative stereo) showed a melting point of 176 to 180 °C.
For `CCCCc1cc2cc([N+](=O)[O-])ccc2n1C`, the melting point came out at 77 °C.
The result for `O=C(Nc1ccc(Oc2ccnc(N3CCC(F)(F)CC3)n2)c2ccccc12)c1cc(F)cc(N2CCCCC2)c1` reads 172 to 174 °C; that for `FC(F)(F)c1ccc(-c2ccc(Cl)nc2)cc1`, 98 to 101 °C.
The figure for `COc1cc(F)ccc1-c1ccc(S(=O)(=O)N2c3ccccc3CC2C(=O)NCCOc2ccc(C(=O)O)c(F)c2)cc1` (stereo not drawn) is 88 to 95 °C; for `CCC(C)(C)NC(Nc1cc(C(F)(F)F)cc(C(F)(F)F)c1)=C(C#N)S(=O)(=O)c1ccc(Cl)cc1` it is 205 to 207 °C; for `CC(=S)NC[C@H]1CN(c2ccc(N3CCC4(CC3)OCCO4)c(F)c2)C(=O)O1` it is 141 to 143 °C.
The result for `COc1ccc(-c2nc(C(N)=O)sc2-c2ccc(OC)cc2)cc1` reads 160 to 162 °C; that for `COc1cccc(Cn2cc3c(-c4cccc(C(=O)NCCO)c4)cccc3n2)n1`, 104 to 105 °C.
In the case of `CCCCc1nn2ccccc2c1C(=O)c1ccccc1C#N`, the melting point is 116 °C.
The figure for `COC(=O)C(=Cc1c[nH]c2cc(C)ccc12)NC(C)=O` is 182 to 183 °C; for `CCOc1nc(N)nc(C(F)(F)F)n1` it is 124 to 125 °C.
The result for `Cc1ccc(S(=O)(=O)Oc2ccc(S(=O)(=O)Cc3cccnn3)cc2)cc1` reads 161 °C; that for `COc1cc(NC2=C(Cl)C(=O)c3ccccc3C2=O)ccc1S(=O)(=O)Nc1ccc(C)cc1`, 186 to 189 °C.
The result for `Oc1ccc(-c2cc(S)n3nccc3n2)cc1O` reads above 280 °C; that for `Nc1ccc2c(c1)N1CCCN=C1S2`, 197 °C; that for `Cc1cccc2cc3c(=O)n([C@@H](C)c4ccccc4)cc(C(=O)O)c3nc12`, 234 to 235 °C.
`Cc1cc(Br)ccc1NC(=O)c1cccc(S(=O)(=O)N2CCCCCC2)c1` gave a melting point of 177 to 179 °C.
The figure for `O=C(O)COc1cccc2c1Cc1sc(S(=O)(=O)CC=Cc3ccccc3)nc1-2` is 212 to 214 °C; for `FC(F)(F)c1ccc(-c2nccc(CBr)n2)cc1` it is 125 °C; for `N#Cc1ccc(O[C@H]2CC[C@H](NC(=O)Nc3ccc(OC(F)(F)F)cc3)CC2)cc1` it is 186 to 189 °C.
As for `COc1ccc2cc(C3=C(CC(=O)O)CCCC3=O)ccc2c1Br`, the melting point was 165 to 166 °C.
The result for `CC(=O)c1ccc(-c2cnc3c(c2)N(Cc2ccccc2)C(=O)CN3)cc1` reads 200 °C; that for `O=c1oc(-c2ccc(NS(=O)(=O)c3ccccc3)cc2)cc(O)c1SCCc1ccccc1`, 89 to 91 °C; that for `CCCN(CCC)C(=O)C(CCC(N)=O)NC(=O)C=Cc1ccco1` (stereo not drawn), 152 to 153 °C.
Regarding `CC(C)N(CCC(CCN(C(C)C)C(C)C)(C(N)=O)c1ccccc1C(F)(F)F)C(C)C`, the melting point lay in the range of 131 to 132 °C.
The result for `CSc1nc2ccc(C)cc2c2nn(-c3ccccc3)c(=O)n12` reads above 400 °C.
The result for `Cc1c(C(=O)C(N)=O)c2c(OCC(=O)O)cccc2n1Cc1ccccc1` reads 218 to 220 °C; that for `N#Cc1ccc(Cn2cncc2CCCO)cc1`, 121 to 123 °C.
The figure for `Cc1ccc(S(=O)(=O)OCCc2nc(-c3cccc(Br)c3)oc2C)cc1` is 107 to 109 °C; for `O=C(CCNC(=O)[C@H](Cc1ccc(-c2ccccc2)cc1)NCP(=O)(O)Oc1ccccc1)OCc1ccccc1` it is 243 to 244 °C; for `COC(=O)c1c(SC)nn(C2CCCC2)c1N` it is 88 to 89 °C.
Compound `Cc1[nH]c(C(=O)C(Cl)(Cl)Cl)c2c1-c1ccc(Cl)cc1C(c1ccccc1F)=NC2` gave a melting point of 222 to 225 °C.
`CCn1cc(C(=O)NC2CCCc3ccccc32)c(=O)c2cnc(N3CCCC3)nc21` (stereo not drawn): the melting point lay within 284 to 286 °C.
The figure for `CC(=O)Nc1cc(C(C)(C)C)ccc1N1CCOCC1` is 112 to 113 °C.
The result for `CNC(=O)Nc1nnc(C(F)(F)F)s1` reads 192 to 194 °C; that for `O=C(O)/C=C(\c1ccccc1)c1ccncc1`, 239 to 241 °C.
The compound `Cc1nc(-c2cnn(-c3c(Cl)cc(C(F)(F)F)cc3Cl)n2)[nH]c1[N+](=O)[O-]` came in with a melting point of 231 to 232 °C.
The result for `CCOC(=O)C(C)=NNc1ccc(C)cc1C` reads 146 °C; that for `O=C(c1ccc([N+](=O)[O-])cc1)c1cc2c(c(Cl)c1Cl)OC(C(=O)O)C2` (stereo not drawn), 243 to 245 °C; that for `O=C(NCc1ccc(Cl)cc1)c1cnc2cc(C(F)(F)F)ccc2c1O`, 189 to 190 °C.
The result for `O=C(CCCl)NC(=O)Nc1cc(C(F)(F)F)cc(C(F)(F)F)c1` reads 175 °C; that for `O=[N+]([O-])c1ccc2nc(-c3ccc(Cl)cc3)sc2c1`, 227 to 232 °C.
